Data on two compounds can be found in patent publication US11559545B2, “Inhibition of UCHL1 in high-grade serous ovarian cancer” (The Trustees of Indiana University, priority 2019, dated 2023).

In test [1] the test system is HGSOC primary and metastatic tumors. Description: Transgenic TKO mouse model of HGSOC: growth and progression of primary and metastatic tumors after UCHL1 inhibition. Format: in vivo. The source says: Triple mutant (TKO) mice are Pten and Dicer knockout and overexpress mutant p53 R172H (corresponding to human R175H mutant) (Pten−/− Dicer−/− and p53-R172H). These mice spontaneously developed primary tumors in the fallopian tube at age 4 months, which metastasize to other organs by 5-6 months. This model recapitulates metastatic tumor growth as in ovarian cancer patients. […] The tumors are circled using a dotted line and/or indicated with arrows.
FIGS. 11B and 11C illustrate the reduction in primary HGSOC tumor size with LDN treatment in mice aged 4-6 months.

The test system of a further test is PSMA7. The test is described as follows: PSMA7 RNA and protein levels in treated TKO mice. Format: in vivo, mouse. To be noted: treated TKO mice vs untreated TKO control, FIG. 12E.
In a further test the test system is Proteasome. The test is described as follows: Proteasome activity in treated TKO mice. To be noted: treated TKO mice vs TKO CTL mice, FIG. 12E. In kind it is in vivo, mouse.
Test [2] has as its system UCHL1. The following applies: cited from earlier work.
For test [3], the system named is UCHL1. Description: Relative UCHL1 expression (qPCR) after DNA methylase inhibitor treatment in ovarian cancer cells. Format: cell-based. The following applies: 200 μM, day 2, HGSOC cell lines with mutant p53, FIG. 7I. The procedure: FIG. 7A depicts relative UCHL1 expression (qPCR) after treatment with DNA methylase inhibitor, 5AzaDC (200 μM, day3) in ovarian cancer cells. The following cell cultures were included in the analysis: HeyA8 (WT p53), SKOV3 (p53 null), OVCAR5 (p53 null), Kuramochi (mutant p53), and OVCAR4 (mutant p53).
FIG. 7H depicts relative UCHL1 expression (qPCR) after treatment with DNA methylase inhibitor, 5AzaDC (200 μM, day 2) in ovarian cancer cells with wild-type p53 (HeyA8 and A2780), ovarian cancer cells with p53-null mutations (OVCAR5 and SKOV3) and normal fallopian tube cells with wild-type p53 (FTE282).
FIG. 7I illustrates that no change in UCHL1 levels were detected with treatment with DNA methylase inhibitor 5AzaDC (200 μM, day 2) in HGSOC cell lines with mutant p53.
(Quantitative PCR measures a nucleic acid by following its amplification.)

`CC(=O)O/N=C1\C(=O)N(Cc2cc(Cl)ccc2Cl)c2ccc(Cl)cc21` [LDN-57444]: the primary tumor entry in test [1] (TKO mice (Pten-/- Dicer-/- p53-R172H) vs TKO control, FIG. 11A) is on record as “visible reduction”. The “metastatic tumors in the omentum, diaphragm, mesentery, and peritoneal wall” value in test [1] (TKO mice vs TKO control, FIG. 11A) is “absence”. Moreover, in test [1] (mice aged 4-6 months, FIGS. 11B and 11C), the “primary HGSOC tumor size” value is “reduction”. For the same compound, in the test on PSMA7, the “PSMA7 RNA levels” value is “reduced” and the PSMA7 protein levels entry is reported as “reduced”. Moreover, the Proteasome activity result in the test on Proteasome is on record as “significantly reduced”. Moreover, in the test with UCHL1 [2], the “mode of UCHL1 inhibition” value is “competitive, reversible, active site-directed inhibitor”.

Turning to `Nc1ncn([C@H]2C[C@H](O)[C@@H](CO)O2)c(=O)n1` [5AzaDC], the UCHL1 levels result with UCHL1 [3] was “no change”.
